# Experiments:
# MBD4 = biological target: T1, MBD4 (Mus musculus, UniProt Q9Z2D7); assay type: biochemical; conditions: inhibitor 2 μM
# T1 sequence (Q9Z2D7 411-554 limits assumed): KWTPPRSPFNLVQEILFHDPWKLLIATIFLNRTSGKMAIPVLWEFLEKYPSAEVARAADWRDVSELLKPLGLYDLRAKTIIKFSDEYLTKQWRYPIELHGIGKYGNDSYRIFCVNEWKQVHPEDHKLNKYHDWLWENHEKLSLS
# TDG = TDG (Homo sapiens, UniProt Q13569); assay type: biochemical
# MYH = biological target: T2, MYH (Mus musculus, UniProt Q99P21); assay type: biochemical; conditions: inhibitor 2 μM
# T2 sequence (Q99P21 1-515): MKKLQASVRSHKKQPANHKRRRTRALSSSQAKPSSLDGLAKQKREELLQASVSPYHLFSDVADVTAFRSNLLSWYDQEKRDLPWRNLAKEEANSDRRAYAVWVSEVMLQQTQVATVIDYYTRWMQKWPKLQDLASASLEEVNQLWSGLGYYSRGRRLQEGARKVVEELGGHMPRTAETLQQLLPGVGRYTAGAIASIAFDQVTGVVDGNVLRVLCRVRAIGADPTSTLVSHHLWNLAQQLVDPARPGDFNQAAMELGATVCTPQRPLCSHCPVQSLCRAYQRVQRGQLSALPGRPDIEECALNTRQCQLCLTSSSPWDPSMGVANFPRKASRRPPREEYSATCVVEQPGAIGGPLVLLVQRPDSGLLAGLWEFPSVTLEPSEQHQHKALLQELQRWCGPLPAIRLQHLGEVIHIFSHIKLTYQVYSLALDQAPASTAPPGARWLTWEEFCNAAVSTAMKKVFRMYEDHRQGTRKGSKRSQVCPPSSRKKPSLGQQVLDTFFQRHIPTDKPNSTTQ
# CamA = assay type: biochemical
# CcrM = CcrM (Caulobacter vibrioides, UniProt P0CAW2); assay type: biochemical
# CcrM, sequence (P0CAW2 whole entry): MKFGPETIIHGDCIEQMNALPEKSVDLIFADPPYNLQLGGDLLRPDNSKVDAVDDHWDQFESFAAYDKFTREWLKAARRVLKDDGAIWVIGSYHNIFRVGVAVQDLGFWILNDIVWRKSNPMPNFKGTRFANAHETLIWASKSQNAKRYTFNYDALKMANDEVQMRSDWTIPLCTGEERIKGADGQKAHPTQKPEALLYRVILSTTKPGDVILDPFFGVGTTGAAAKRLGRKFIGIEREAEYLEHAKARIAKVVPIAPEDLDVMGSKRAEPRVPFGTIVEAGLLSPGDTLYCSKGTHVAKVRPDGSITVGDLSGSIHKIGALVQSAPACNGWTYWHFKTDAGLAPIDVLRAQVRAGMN
# Pol θ = assay type: biochemical, Human; conditions: 50 μM
# Dam = Dam (Escherichia coli, UniProt P0AEE8); assay type: biochemical
# Dam, sequence (P0AEE8 whole entry): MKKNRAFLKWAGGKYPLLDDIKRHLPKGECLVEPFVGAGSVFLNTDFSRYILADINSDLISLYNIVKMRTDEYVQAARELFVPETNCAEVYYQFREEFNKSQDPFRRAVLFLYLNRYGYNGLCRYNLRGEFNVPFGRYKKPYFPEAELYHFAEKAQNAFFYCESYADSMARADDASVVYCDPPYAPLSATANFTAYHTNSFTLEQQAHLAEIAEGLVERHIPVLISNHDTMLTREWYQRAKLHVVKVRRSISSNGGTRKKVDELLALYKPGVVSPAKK
# Pol η = biological target: T3, Pol η (Homo sapiens, UniProt Q9Y253); assay: Pol η nucleotide incorporation assay; assay type: biochemical
# T3 sequence (Q9Y253 1-432 limits assumed): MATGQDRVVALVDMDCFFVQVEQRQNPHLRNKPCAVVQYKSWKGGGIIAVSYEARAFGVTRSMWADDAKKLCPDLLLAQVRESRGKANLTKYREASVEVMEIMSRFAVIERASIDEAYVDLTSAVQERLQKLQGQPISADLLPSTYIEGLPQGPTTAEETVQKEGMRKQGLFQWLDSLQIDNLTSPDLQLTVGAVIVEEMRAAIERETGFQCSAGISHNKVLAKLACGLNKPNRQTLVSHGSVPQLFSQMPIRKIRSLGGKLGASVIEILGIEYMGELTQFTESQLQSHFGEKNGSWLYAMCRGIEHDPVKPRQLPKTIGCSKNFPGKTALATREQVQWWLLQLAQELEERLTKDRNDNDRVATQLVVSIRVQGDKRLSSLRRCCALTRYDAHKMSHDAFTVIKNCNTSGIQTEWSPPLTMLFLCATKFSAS
# human DNMT1 = human DNMT1 (Homo sapiens, UniProt P26358); assay: biochemical
# human DNMT1, sequence (P26358 350-1600): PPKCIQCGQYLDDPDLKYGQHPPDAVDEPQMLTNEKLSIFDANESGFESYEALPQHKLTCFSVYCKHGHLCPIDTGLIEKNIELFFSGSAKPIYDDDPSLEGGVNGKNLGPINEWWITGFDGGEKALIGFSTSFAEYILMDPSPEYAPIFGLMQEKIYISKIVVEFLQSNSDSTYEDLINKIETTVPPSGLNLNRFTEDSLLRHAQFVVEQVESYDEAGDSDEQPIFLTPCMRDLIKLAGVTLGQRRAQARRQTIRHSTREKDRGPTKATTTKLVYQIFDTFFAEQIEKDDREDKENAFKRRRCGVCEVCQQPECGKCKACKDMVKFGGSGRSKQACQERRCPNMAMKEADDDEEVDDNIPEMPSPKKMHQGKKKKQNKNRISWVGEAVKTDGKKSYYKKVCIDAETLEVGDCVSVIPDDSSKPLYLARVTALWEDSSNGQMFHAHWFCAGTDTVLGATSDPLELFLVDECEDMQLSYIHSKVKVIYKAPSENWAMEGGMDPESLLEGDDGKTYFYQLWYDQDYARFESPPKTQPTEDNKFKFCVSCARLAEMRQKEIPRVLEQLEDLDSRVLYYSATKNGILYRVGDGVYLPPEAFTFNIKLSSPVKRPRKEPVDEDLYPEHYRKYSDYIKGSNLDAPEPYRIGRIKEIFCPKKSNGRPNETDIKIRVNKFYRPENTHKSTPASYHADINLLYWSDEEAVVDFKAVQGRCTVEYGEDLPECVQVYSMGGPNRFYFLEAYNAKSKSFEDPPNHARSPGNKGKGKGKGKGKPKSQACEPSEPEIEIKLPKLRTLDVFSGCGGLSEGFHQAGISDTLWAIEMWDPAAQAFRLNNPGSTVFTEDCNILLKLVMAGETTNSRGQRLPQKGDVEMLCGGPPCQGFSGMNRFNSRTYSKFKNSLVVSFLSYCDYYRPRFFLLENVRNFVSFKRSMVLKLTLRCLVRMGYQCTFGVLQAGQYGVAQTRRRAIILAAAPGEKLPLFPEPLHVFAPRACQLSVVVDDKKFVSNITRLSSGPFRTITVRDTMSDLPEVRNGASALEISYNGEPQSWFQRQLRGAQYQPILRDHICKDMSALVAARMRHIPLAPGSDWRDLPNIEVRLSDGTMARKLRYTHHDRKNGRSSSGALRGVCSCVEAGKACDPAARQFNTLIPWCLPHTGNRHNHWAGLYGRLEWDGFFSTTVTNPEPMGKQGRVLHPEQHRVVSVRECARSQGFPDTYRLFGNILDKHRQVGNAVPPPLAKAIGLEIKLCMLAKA
# DNMT3A2–3L complex = DNMT3A2–3L complex (Homo sapiens, UniProt Q9Y6K1); assay type: biochemical; conditions: [E]/[DNA] 1:2 versus 1:10, 10 μM
# [1] = system: A549 human non-small cell lung carcinoma (NSCLC) cells; assay type: cell-based; conditions: three days, same conditions as compound 11
# TDG, sequence (Q13569 whole entry): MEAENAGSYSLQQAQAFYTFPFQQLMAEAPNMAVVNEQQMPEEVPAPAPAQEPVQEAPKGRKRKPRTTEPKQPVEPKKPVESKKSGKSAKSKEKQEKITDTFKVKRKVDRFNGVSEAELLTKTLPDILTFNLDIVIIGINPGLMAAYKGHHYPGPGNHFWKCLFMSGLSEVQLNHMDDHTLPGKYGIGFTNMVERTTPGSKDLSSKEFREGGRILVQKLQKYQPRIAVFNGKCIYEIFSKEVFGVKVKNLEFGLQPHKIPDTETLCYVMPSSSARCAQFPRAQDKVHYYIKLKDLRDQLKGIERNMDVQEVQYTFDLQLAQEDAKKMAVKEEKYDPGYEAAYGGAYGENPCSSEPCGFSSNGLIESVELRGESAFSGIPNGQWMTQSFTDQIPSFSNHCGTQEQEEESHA
structure (smiles),measurement,setting,value
Cc1cc(Nc2ccc(NC(=O)c3ccc(Nc4ccnc5ccccc45)cc3)cc2)nc(N)n1 [Compound 1],inhibition of MBD4 activity on T:G mismatch,MBD4,do not exhibit effective inhibition
same,inhibition of MBD4 activity on U:G mismatch,MBD4,do not exhibit effective inhibition
same,inhibition of TDG activity on T:G mismatch,TDG,do not exhibit effective inhibition
same,inhibition of MYH excision of adenine opposite 8-oxoG,MYH,do not exhibit effective inhibition
same,inhibition of CamA,CamA; 10 μM,less than 50%
same,inhibition of CcrM (in words),CcrM,no inhibitory effect at all
same,inhibition of Pol θ activity,Pol θ,~ 50%
same,inhibition of Dam (in words),Dam,no inhibitory effect at all
same,inhibition of Pol η activity,Pol η; 10 μM compound,more than 50%
same,inhibition of DNMT1,"human DNMT1; 10 μM compound, [E]/[DNA]=1:10",~ 70%
Nc1ncnc2c1ncn2[C@@H]1O[C@H](C[C@@H](N)CC[C@H](N)C(=O)O)[C@@H](O)[C@H]1O [sinefungin],inhibition of CamA (in words),CamA,limited inhibition
same,inhibition of CcrM (in words),CcrM,significant inhibition
same,change of DNMT3A2–3L inhibition as a function of DNA substrate concentration,DNMT3A2–3L complex,did not change
same,impact on Pol η polymerase activity (in words),Pol η; 10 μM,no impact on polymerase activity
same,inhibition at 10 µM,human DNMT1; read-out: inhibition of DNMT1,~50%
"OC[C@H]1O[C@@H](n2cnc3c(NCCCc4ccccc4)ncnc32)[C@H](O)[C@@H]1O [MC4741, (2R,3S,4R,5R)-2-(Hydroxymethyl)-5-(6-((3-phenylpropyl)-amino)-9H-purin-9-yl)tetrahydrofuran-3,4-diol]",IC50,CamA; read-out: IC50 against CamA,700 nM
CCc1c(C#N)c(SC(C(N)=O)c2ccccc2)nc(N(C)C)c1C#N (centres unmarked) [GSK3484862],A549 cell viability / toxicity (in words),[1],viabilities similar to control cells
